Data reported in patent publication US10047096B2, “Substituted pyridobenzodiazepinone-derivatives and use thereof” (Bayer Pharma Aktiengesellschaft, priority 2014, dated 2018).

Assays:
human PDGFRβ = human PDGFRβ (Homo sapiens (Human), UniProt P09619); test: PDGFRβ kinase assay (PDGFRβ-HTRF); type: biochemical; settings: 10 μM ATP; some mean values from multiple determinations
Summary of the method: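 GST-fused human PDGFRβ fragment (R561-L1106) from Sf9 cells was preincubated 15 min with compound in 50 mM HEPES pH 7.5, 10 mM MgCl2, 2.5 mM DTT, 0.01% Triton X-100; substrate was biotinylated poly-Glu,Tyr (4:1).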

[1] = biological target: pPDGFRβ in normal human dermal fibroblasts (NHDF) (Homo sapiens (Human), UniProt P09619); test: Cellular pPDGFRβ inhibition assay; type: cell-based; settings: NHDF stimulated with 50 ng/ml PDGF-BB, 1 h
Description: Thereafter, 50 ng/ml recombinant human PDGF-BB (R&D Systems, Cat. No. 220-BB-050) and a dilution series of the test substances to be examined in DMSO were added to the cells. The total volume per well was 100 μl. After incubation under the abovementioned conditions for one hour, the Opti-MEM® I Reduced Serum Medium was tapped out and discarded. Subsequently, the lysis buffer [Phospho PDGFRβ (Tyr751) Assay Whole Cell Lysate Kit, MSD, Cat. No. K150DVD-2] was made up according to the manufacturer's instructions and 70 μl of this mixture per well were added. The lysed cell samples were either stored at −20° C. or analysed immediately after the lysis in a Meso Scale SECTOR® Imager 2400 according to the abovementioned manufacturer's instructions. The measurement data were presented as percentage PDGFRβ stimulation compared to PDGF-BB-stimulated but substance-untreated cells. The IC50 values were calculated by employing the nonlinear regression (curve fit) function of GraphPad Prism 6 (La Jolla, Calif., USA).

Chain of pPDGFRβ in normal human dermal fibroblasts (NHDF) (P09619 33-1106): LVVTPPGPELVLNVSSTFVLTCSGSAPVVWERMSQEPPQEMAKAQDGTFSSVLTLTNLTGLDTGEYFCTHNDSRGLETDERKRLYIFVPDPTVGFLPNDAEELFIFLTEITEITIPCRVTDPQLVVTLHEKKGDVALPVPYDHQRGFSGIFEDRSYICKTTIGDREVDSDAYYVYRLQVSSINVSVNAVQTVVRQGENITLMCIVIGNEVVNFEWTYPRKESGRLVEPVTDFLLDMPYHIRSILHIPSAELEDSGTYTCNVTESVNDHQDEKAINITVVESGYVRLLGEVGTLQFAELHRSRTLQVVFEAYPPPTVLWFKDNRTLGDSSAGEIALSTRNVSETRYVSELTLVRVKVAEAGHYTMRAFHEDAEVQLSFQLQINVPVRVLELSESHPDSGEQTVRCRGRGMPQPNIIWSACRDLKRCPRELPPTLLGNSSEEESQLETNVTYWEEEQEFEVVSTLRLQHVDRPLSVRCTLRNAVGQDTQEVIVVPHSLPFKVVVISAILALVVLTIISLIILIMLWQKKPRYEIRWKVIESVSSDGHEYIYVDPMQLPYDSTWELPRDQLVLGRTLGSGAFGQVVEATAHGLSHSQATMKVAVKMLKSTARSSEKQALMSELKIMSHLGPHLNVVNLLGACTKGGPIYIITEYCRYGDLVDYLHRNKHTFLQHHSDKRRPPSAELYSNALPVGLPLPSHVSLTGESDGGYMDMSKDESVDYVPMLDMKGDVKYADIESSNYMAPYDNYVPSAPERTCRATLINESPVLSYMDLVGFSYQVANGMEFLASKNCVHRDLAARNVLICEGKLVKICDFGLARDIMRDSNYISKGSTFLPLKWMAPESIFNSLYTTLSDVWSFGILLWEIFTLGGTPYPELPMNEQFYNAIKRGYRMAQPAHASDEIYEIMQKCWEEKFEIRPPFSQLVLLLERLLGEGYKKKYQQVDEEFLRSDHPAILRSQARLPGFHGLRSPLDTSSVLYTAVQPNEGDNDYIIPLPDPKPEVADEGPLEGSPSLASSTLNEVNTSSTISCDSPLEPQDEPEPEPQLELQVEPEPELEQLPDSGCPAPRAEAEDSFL
Chain of human PDGFRβ (P09619 561-1106): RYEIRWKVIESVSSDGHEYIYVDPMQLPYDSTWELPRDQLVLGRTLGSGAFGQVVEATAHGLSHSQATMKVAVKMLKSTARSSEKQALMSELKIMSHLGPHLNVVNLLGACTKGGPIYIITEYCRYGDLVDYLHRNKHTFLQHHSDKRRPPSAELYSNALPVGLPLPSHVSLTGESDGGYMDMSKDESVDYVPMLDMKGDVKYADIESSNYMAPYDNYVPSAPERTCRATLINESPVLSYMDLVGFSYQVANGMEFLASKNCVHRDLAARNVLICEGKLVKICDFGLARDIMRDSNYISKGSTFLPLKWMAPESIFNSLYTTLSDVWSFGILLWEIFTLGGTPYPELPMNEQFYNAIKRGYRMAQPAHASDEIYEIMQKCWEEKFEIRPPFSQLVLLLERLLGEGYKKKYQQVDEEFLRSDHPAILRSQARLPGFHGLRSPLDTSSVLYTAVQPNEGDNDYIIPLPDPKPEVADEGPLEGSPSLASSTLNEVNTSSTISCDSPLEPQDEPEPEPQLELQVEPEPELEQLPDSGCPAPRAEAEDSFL

Compound	IC50 (human PDGFRβ)	IC50 [1]
Cc1cc(F)c(Nc2ccnc3c2C(=O)Nc2cc(CN(C)C[C@H](C)O)ccc2N3)cc1O [Example 202, 4-[(2-Fluoro-5-hydroxy-4-methylphenyl)amino]-8-({[(2S)-2-hydroxypropyl](methyl)amino}methyl)-6,11-dihydro-5H-pyrido[2,3-b][1,5]benzodiazepin-5-one]	1.55 nM	39.1 nM
Cc1cc(F)c(Nc2ccnc3c2C(=O)Nc2cc(CNC(CO)CO)ccc2N3)cc1O [Example 78, 8-{[(1,3-Dihydroxypropan-2-yl)amino]methyl}-4-[(2-fluoro-5-hydroxy-4-methylphenyl)amino]-6,11-dihydro-5H-pyrido[2,3-b][1,5]benzodiazepin-5-one]	0.974 nM	32.6 nM
CCOCCN(CC)Cc1ccc2c(c1)NC(=O)c1c(Nc3cc(O)c(C)cc3F)ccnc1N2 [Example 50, 8-{[(2-Ethoxyethyl) (ethyl)amino]methyl}-4-[(2-fluoro-5-hydroxy-4-methylphenyl)amino]-6,11-dihydro-5H-pyrido[2,3-b][1,5]benzodiazepin-5-one]	1.13 nM	97.4 nM
Cc1ccc(O)cc1Nc1ccnc2c1C(=O)Nc1cc(CNC(C)C)ccc1N2 [Example 19, 4-[(5-Hydroxy-2-methylphenyl)amino]-8-[(isopropylamino)methyl]-6,11-dihydro-5H-pyrido[2,3-b][1,5]benzodiazepin-5-one]	2.02 nM	40.9 nM
Cc1cc(F)c(Nc2ccnc3c2C(=O)Nc2cc(CN(C)CCN)ccc2N3)cc1O [Example 209, 8-{[(2-Aminoethyl)(methyl)amino]methyl}-4-[(2-fluoro-5-hydroxy-4-methylphenyl)amino]-6,11-dihydro-5H-pyrido[2,3-b][1,5]benzodiazepin-5-one]	0.739 nM	215 nM

The remaining molecules from weak to strong by IC50 (human PDGFRβ), led by results:

IC50 (human PDGFRβ)	IC50 [1]	Compound
3.25 nM	22.8 nM	Cc1cc(F)c(Nc2ccnc3c2C(=O)Nc2cc(CN4CCCC4)ccc2N3)cc1O [Example 32, 4-[(2-Fluoro-5-hydroxy-4-methylphenyl)amino]-8-(pyrrolidin-1-ylmethyl)-6,11-dihydro-5H-pyrido[2,3-b][1,5]benzodiazepin-5-one]
2.89 nM	35.3 nM	Cc1cc(F)c(Nc2ccnc3c2C(=O)Nc2cc(CN4CCOCC4)ccc2N3)cc1O [Example 29, 4-[(2-Fluoro-5-hydroxy-4-methylphenyl)amino]-8-(morpholin-4-ylmethyl)-6,11-dihydro-5H-pyrido[2,3-b][1,5]benzodiazepin-5-one]
2.44 nM	140 nM	Cc1ccc(O)cc1Nc1ccnc2c1C(=O)Nc1cc(CN3CCC(O)CC3)ccc1N2 [Example 42, 4-[(5-Hydroxy-2-methylphenyl)amino]-8-[(4-hydroxypiperidin-1-yl)methyl]-6,11-dihydro-5H-pyrido[2,3-b][1,5]benzodiazepin-5-one]
2.17 nM	111 nM	Cc1cc(F)c(Nc2ccnc3c2C(=O)Nc2cc(CNC4CC4)ccc2N3)cc1O [Example 30, 8-[(Cyclopropylamino)methyl]-4-[(2-fluoro-5-hydroxy-4-methylphenyl)amino]-6,11-dihydro-5H-pyrido[2,3-b][1,5]benzodiazepin-5-one]
1.51 nM	41.3 nM	Cc1cc(F)c(Nc2ccnc3c2C(=O)Nc2cc(CNC4CC(O)C4)ccc2N3)cc1O (stereo not drawn) [Example 187, 4-[(2-Fluoro-5-hydroxy-4-methylphenyl)amino]-8-{[(3-hydroxycyclobutyl)amino]methyl}-6,11-dihydro-5H-pyrido[2,3-b][1,5]benzodiazepin-5-one]
1.22 nM	33.3 nM	CCNCc1ccc2c(c1)NC(=O)c1c(Nc3cc(O)c(C)cc3F)ccnc1N2 [Example 31, 8-[(Ethylamino)methyl]-4-[(2-fluoro-5-hydroxy-4-methylphenyl)amino]-6,11-dihydro-5H-pyrido[2,3-b][1,5]benzodiazepin-5-one]
0.68 nM	14.3 nM	Cc1cc(F)c(Nc2ccnc3c2C(=O)Nc2cc(CN4C[C@H](O)C[C@H]4CO)ccc2N3)cc1O [Example 64, 4-[(2-Fluoro-5-hydroxy-4-methylphenyl)amino]-8-{[(2S,4R)-4-hydroxy-2-(hydroxymethyl)pyrrolidin-1-yl]methyl}-6,11-dihydro-5H-pyrido[2,3-b][1,5]benzodiazepin-5-one]
